Experimental findings from patent US8853406B2, “Substituted phenylenediamines as inhibitors of the interaction between MDM2 and P53” (Janssen Pharmaceutica NV, priority 2007, dated 2014) are described below.

One data set deals with p53 in A2780 cells. In words: p53 ELISA in A2780 cells (capacity to preserve p53). The class given is cell-based. The conditions noted are these: lowest dose giving at least 140% of the p53 value of the control, 16 hours. As to the method:
The capacity of the compounds to preserve p53 in A2780 cells was measured with the p53 enzyme linked immunosorbent assay. The p53 assay is a “sandwich” enzyme immunoassay employing two polyclonal antibodies. A polyclonal antibody, specific for the p53 protein, has been immobilized onto the surface of the plastic wells. Any p53 present in the sample to be assayed will bind to the capture antibody. The biotinylated detector polyclonal antibody also recognizes p53 protein, and will bind to any p53, which has been retained by the capture antibody. The detector antibody, in turn, is bond by horseradish peroxidase-conjugated streptavidin. The horseradish peroxidase catalyses the conversion of the chromogenic substrate o-phenylene diamine, the intensity of which is proportional to the amount of p53 protein bond to the plate. The colored reaction product is quantified using a spectrophotometer. Quantitation is achieved by the construction of a standard curve using known concentrations of purified recombinant HIS tagged p53 protein (see example C.1.).
A2780 cells (ATCC) were cultivated in RPMI 1640 supplemented with 10% fetal calf serum (FCS), 2 mM L-glutamine and gentamycin at 37° C. in a humidified incubator with 5% CO2.
A2780 cells were seeded at 20.000 cells per well in a 96 well plate, cultured for 24 hours and treated with compound for 16 hours at 37° C. in a humidified incubator. After incubation, the cells were washed once with phosphate-buffered saline and 30 μl, per well, low salt RIPA buffer (20 mM tris, pH7.0, 0.5 mM EDTA, 1% Nonidet P40, 0.5% DOC, 0.05% SDS, 1 mM PMSF, 1 μg/ml aprotinin and 0.5 μ/ml leupeptin) was added. Plates were placed on ice for 30 minutes to complete the lysis. p53 protein was detected in de lysates by using the sandwich ELISA, described below.
High binding polystyrene EIA/RIA 96 well plates (Costar 9018) were coated with the capture antibody pAb1801 (Abcam ab28-100) at a concentration of 1 μg/ml in coating buffer (0.1 M NaHCO3 pH8.2), 50 μl per well. The antibody was allowed to adhere overnight at 4° C. Coated plates were washed once with phosphate-buffered saline (PBS)/0.05% Tween 20 and 300 μl of blocking buffer (PBS, 1% bovine serum albumins (BSA)) was added, for an incubation period of 2 hours at room temperature. Dilutions of purified recombinant HIS tagged p53 protein, ranging from 3-200 ng/ml, were made in blocking buffer and used as standards.
Plates were washed twice with PBS/0.05% Tween 20 and blocking buffer or standards were added at 80 μl/well. To the standards, 20 μl of lysis buffer was added. The samples were added to the other wells at 20 μl lysate/well. After an overnight incubation at 4° C., plates were washed twice with PBS/0.05% Tween 20. Aliquots of 100 μl secondary polyclonal antibody p53(FL-393) (Tebubio, sc-6243) at a concentration of 1 μg/ml in blocking buffer were added to each well and allowed to adhere for 2 hours at room temperature. Plates were washed three times with PBS/0.05% Tween 20. Detection antibody anti-rabbit HRP (sc-2004, Tebubio) at 0.04 μg/ml in PBS/1% BSA was added and incubated for 1 hour at room temperature. Plates were washed three times with PBS/0.05% Tween 20 and 100 μl of substrate buffer was added (substrate buffer was prepared shortly before use by adding 1 tablet of 10 mg o-phenylene diamine (OPD) from Sigma and 125 μl 3% H2O2 to 25 ml OPD buffer: 35 mM citric acid, 66 mM Na2HPO4, pH5.6). After 5 to 10 minutes, colour reaction was stopped by adding 50 μl stop buffer (1 M H2SO4) per well. The absorbance at dual wavelengths of 490/655 nm was measured using a Biorad micro plate reader and the results were then analyzed.
For each experiment, controls (containing no drug) and a blank incubation (containing no cells or drugs) were run in parallel. The blank value was subtracted from all control and sample values. For each sample, the value of p53 (in absorbance units) was expressed as the percentage of the value for p53 present in the control. […]
A general note: In an ELISA, binding on a coated surface is turned into a signal by an enzyme label.

Another data set concerns Male NMRI mice. In words: Ro-4-1284 antagonism in mice (drug induced neurological effects). The note with it: for activity on observations in Ro-4-1284 antagonism test: 80 mg/kg, oral administration, 3 animals; for drug induced neurological side effects: Ro-4-1284 antagonism in mice. The format is in vivo. The protocol: The test is a modification of a procedure described by Colpaert et al. (1975).^3 Male NMRI mice (22±3 g) were housed in macrolon observation cages (L×W×H: 11×12×17 cm; n=3 per cage). At the start of the experiments immediately before test compound administration, the initial body temperature of the mice was measured with a precision of 0.1° C. by inserting the thermo-sensitive probe (1.0 mm diameter) of an electric thermometer (Comark) to a constant depth of 3 cm into the esophagus until a stable reading was obtained. The right eye pupil diameter was measured with a graduated microscope and expressed in 1/24 mm units. Fifteen min after test compound administration, the mice were challenged with Ro-4-1284 (10 mg/kg, s.c.). Ro-4-1284 is a reserpine-like vesicular monoamine transport (VMAT-2) inhibitor, which rapidly depletes secretory vesicles.^3,4 Fifteen, 30 and 60 min after challenge, the mice were scored for palpebral opening (0, 1, 2, 3, 4, 5) and locomotor activity (−1, 0, 1, 2, 3). At the 60-min interval, immediately after the scoring of overt behavior, the right eye pupil diameter and the esophageal temperature were measured again. Abnormal phenomena such as intensive sniffing, chewing, rearing, hyperemia, piloerection, salivation, tremors, convulsions and death were noted (the latter phenomena were also noted when occurring before Ro-4-1284 administration). Criteria for drug-induced effects: reversal of ptosis: palpebral opening score >1 at 15, 30 or 60 min (2.7, 0.5 and 0% false positive controls, respectively; n>350); induction of prostration: score −1 for locomotion at 15, 30 or 60 min (never observed in controls); reversal of hypomotility: score >0 for locomotion at 15, 30 and 60 min (2.2, 0.8 and 0% false positive controls, respectively); reversal of miosis: pupil diameter >5 units at 60 min (0.8% false positives); potentiation of hypothermia: temperature decrease (over the 1-h time interval)>9.0° C. (1.4% false positives); reversal of hypothermia: temperature decrease <3.0° C. (1.8% false positives).
According to the standard procedure, R0-4-1284 is injected 15 min following subcutaneous or oral administration and observations start 15 min later. Doses are initially given to 3 animals. When at least 2 out of the 3 animals show activity for at least one of the observations, the compound is considered active.

On to `Cc1cc(Nc2ccnc3c2CCC3O)ccc1NCCc1c[nH]c2c(C)cccc12` (single isomer, unassigned) [Compound No. 1], for which, in the data set with p53 in A2780 cells (listed as drawing 35), the “A2780 p53-elisa LAD” value worked out at 3.00E-08. Besides, in the data set on Male NMRI mice, the “activity on observations in Ro-4-1284 antagonism test” value is listed as “did not show activity on any observation on any animal” and the “drug induced neurological side effects” value is “No”.
Regarding `Cc1cc(Nc2ccnc3c2CCC3O)ccc1NCCc1c[nH]c2c(C)cccc12` (single isomer, unassigned) [Compound No. 2], the “A2780 p53-elisa LAD” value in the data set with p53 in A2780 cells (listed as drawing 36) was 1.00E-07. Moreover, in the data set on Male NMRI mice, the “activity on observations in Ro-4-1284 antagonism test” value is given as “did not show activity on any observation on any animal” and the “drug induced neurological side effects” value is “No”.
